“Also recorded” adds a separate entry of the source. Read-outs that look alike come from different tables or passages of the source.
How the values were obtained:
[1] = system: MCF-7 cells (human breast cancer cell line); experiment: In vitro cytotoxicity, viability assay (MTT method), MCF-7; type: cell-based; settings: MCF7, 24 h incubation, triplicate, read-out: IC50 values (mean ± SD) MCF-7
Protocol: (§1) All experiments were conducted in triplicate.
(§2) Scaffold I compounds were characterised by the uracil core attached to the 5,5-dimethyl cyclohexanone moiety through an NH linker and bearing an amino group at position 6. The activity of such compounds could be attributed to the larger number of hydrogen bond donors when compared to compounds with scaffold II. On the other hand, the activity of 5d with scaffold II could be attributed to the nature of the substituent at N1 of the pyrimidine ring being a hydrophobic benzyl group that could be involved in hydrophobic interaction and π-π stacking. Generally, the isosteric substitution of oxo with thioxo at position 2 of the pyrimidine ring lowered the anti-proliferative activity in both scaffolds I and II compounds.

[2] = system: MCF-7, HepG-2 and A-549 cells; experiment: Anti-proliferative screening, classification over the three cell lines; type: cell-based; settings: compared to methotrexate
Protocol: as §1, §2

[3] = system: HepG-2 cells (human Hepatocellular carcinoma); experiment: In vitro cytotoxicity, viability assay (MTT method), HepG-2; type: cell-based; settings: HepG2, 24 h incubation, triplicate, read-out: IC50 values (mean ± SD) HepG-2
Protocol: as §1, §2

[4] = system: A-549 cells (lung carcinoma); experiment: In vitro cytotoxicity, viability assay (MTT method), A-549; type: cell-based; settings: Homo sapiens, A549, 24 h incubation, triplicate, read-out: IC50 values (mean ± SD) A-549
Protocol: as §1, §2

HSP90 = experiment: In vitro HSP90 enzyme inhibition assay (HSP90 (C-Terminal) Inhibitor Screening Assay Kit); type: biochemical; settings: read-out: HSP90 IC50 (mean ± SD)
Protocol: (§3) In vitro enzyme inhibitory assay of compounds 3a and 5d was performed against Topoisomerase-II enzyme using Topoisomerase II Assay Kit (plasmid-based)[34] and HSP90 enzyme using HSP90 (C-Terminal) Inhibitor Screening Assay Kit[35]. The procedure of the used kits was done according to the manufacturer’s instructions.
As reported, cancer cell growth and proliferation are inhibited when HSP90 is inhibited.

[5] = In vitro cytotoxicity against normal WI-38 cell line; settings: human
From the text: The viability assay (MTT method)[33] was used to evaluate the cytotoxic activity of the synthesised compounds against three mammalian tumour cell lines obtained from the VACSERA Tissue Culture Unit, namely MCF-7 cells (human breast cancer cell line), HepG-2 cells (human Hepatocellular carcinoma), and A-549 cells (lung carcinoma), as well as the normal WI-38 human cell line for both compounds 3a and 5d. […] 1% Crystal violet stain: it is composed of 0.5% (w/v) crystal violet and 50% methanol, which is then diluted to volume with ddH2O and filtered through a Whatman No.1 filter paper. Dulbecco’s modified Eagle’s medium (DMEM) supplemented with 10% heat-inactivated foetal bovine serum, 1% L-glutamine, HEPES buffer, and 50 μg/mL gentamycin was used to grow the cells. All cells were cultured twice a week and kept at 37 °C in a humidified atmosphere with 5% CO2. In 100 μL of the growth medium, the cells were seeded in a 96-well plate at a cell concentration of 1 × 10^4 cells per well. After 24 h of seeding, a fresh medium containing different concentrations of the test sample was added. A multichannel pipette was used to add serial two-fold dilutions of the tested chemical compound to confluent cell monolayers dispensed into 96-well, flat-bottomed microtiter plates (Falcon, NJ, USA). The microtiter plates were incubated for 24 h at 37 °C in a humidified incubator with 5% CO2. For each concentration of the test sample, three wells were used. […] Glacial acetic acid (30%) was thoroughly mixed into all wells, and the absorbance of the plates was measured. Background absorbance detected in wells without added stain was corrected for in all results. […] Each tested compound’s cytotoxic effect on cells was calculated. To determine the number of viable cells, the optical density was measured using a microplate reader (Sunrise, TECAN, Inc, USA), and the percentage of viability was calculated as [(ODt/ODc)] × 100%, where ODt is the mean optical density of wells treated with the tested sample and ODc is the mean optical density of untreated cells. […]

Topoisomerase II = target: T1, Topoisomerase II (Homo sapiens, UniProt P11388); experiment: In vitro Topoisomerase II enzyme inhibition assay (plasmid-based kit); type: biochemical
T1 construct: purchased
Protocol: as §3
Topoisomerase II inhibitors can cause DNA damage and halt the cell cycle.

[6] = system: gene encoding Topoisomerase II; experiment: Topoisomerase II gene expression (RT-PCR) in HepG-2; type: cell-based, human; settings: supernatant of HepG-2 cell lines, compared to control cells
Protocol: (§4) The level of Topoisomerase II, HSP90, and caspase-3 gene expression were assessed using Bio-Rad RT-PCR Kit following the manufacturer’s instructions. HepG-2 cells were exponentially grown and then treated with 3a after treatment with DNA polymerase and fluorescein. The expression of Topoisomerase II, HSP90, and caspase-3 genes was measured fluorometrically.
(§5) A caspase family is a group of cysteine proteases that activates apoptosis through receptor or mitochondrial-dependent cell death. Caspase-3 activation catalyses the cleavage of key cellular proteins, leading to both mitochondrial-dependent and non-dependent cell death. Caspase-3 is also associated with cell rupture and the formation of apoptotic bodies. The effect of 3a on caspase-3 gene expression was studied in HepG-2 cell lines. […] The gene that encodes DNA Topoisomerase II controls the topology of […] during DNA transcription. This gene is a target for anti-proliferative agents by altering enzyme activity. In the present work, the effect of 3a on the expression of the gene encoding Topoisomerase II in the supernatant of HepG-2 cell lines was studied. […] Furthermore, the HSP90 encoding gene interferes with the proper folding of specified protein targets and interferes with ATP binding.

gene encoding HSP90 = experiment: HSP90 gene expression (RT-PCR) in HepG-2; type: cell-based, human; settings: supernatant of HepG-2 cell lines, compared to control cells
Protocol: as §4, §5

HepG-2 cells [7] = experiment: Flow cytometric analysis of cell-cycle distribution (propidium iodide); type: cell-based, human
Protocol: Cell-cycle analysis was performed by DNA staining with propidium iodide (PI) following the manufacturer’s protocol (Abcam, USA)[36]. HepG-2 cells were cultured following the procedure till exponential growth was reached. After removing the culture media, the cells were rinsed with phosphate buffer. Cells were then treated with 3a and suspended in 66% ethanol on the ice at 4 °C. Then, PI was added together with the RNase staining solution. Incubation was allowed for 20–30 min at 37 °C in the dark. For the preparation of flow cytometry, fixed cells were placed on ice. Podium iodide fluorescence was collected using 488 nm laser illumination.
Thus, it was studied further to determine the mechanism of its cell growth inhibition. The standard PI flow cytometry assay was used to investigate cell cycle distribution and apoptosis induction in HepG-2 cells. […] 3a halts the cell cycle of HepG-2 at the G1-S phase.

caspase-3 gene = caspase-3 gene expression (RT-PCR) in HepG-2; type: cell-based, human; settings: HepG-2, compared to control cells
Protocol: as §4, §5

HepG-2 cells [8] = experiment: Cellular apoptosis analysis (Annexin V-FITC/PI); type: cell-based, human; settings: HepG-2, 14.31 μM, 24 h; untreated cells 0.58%
Protocol: Annexin V is a protein that has a high affinity to bind to membrane phosphatidylserine (PS) translocated from the inner cellular plasma membrane to the cell surface after apoptosis initiation following the manufacturer protocol (Biovision, USA)[37]. HepG-2 cells in exponential growth were treated with compound 3a and incubated for 24 h. Then, 1–5 × 10^5 were collected via centrifugation and suspended in 500 µL of 1X Binding Buffer, 5 µL of Annexin V-FITC, and 5 µL of propidium iodide were added and allowed to incubate in the dark for 5 min, then Annexin V-FITC binding was quantified by flow cytometry using emission signal detector at 530 nm.
Using HepG-2 cells and the Annexin FITC/PI dual-labelling technique, 3a-induced apoptosis was investigated.

T1 sequence (P11388 whole entry): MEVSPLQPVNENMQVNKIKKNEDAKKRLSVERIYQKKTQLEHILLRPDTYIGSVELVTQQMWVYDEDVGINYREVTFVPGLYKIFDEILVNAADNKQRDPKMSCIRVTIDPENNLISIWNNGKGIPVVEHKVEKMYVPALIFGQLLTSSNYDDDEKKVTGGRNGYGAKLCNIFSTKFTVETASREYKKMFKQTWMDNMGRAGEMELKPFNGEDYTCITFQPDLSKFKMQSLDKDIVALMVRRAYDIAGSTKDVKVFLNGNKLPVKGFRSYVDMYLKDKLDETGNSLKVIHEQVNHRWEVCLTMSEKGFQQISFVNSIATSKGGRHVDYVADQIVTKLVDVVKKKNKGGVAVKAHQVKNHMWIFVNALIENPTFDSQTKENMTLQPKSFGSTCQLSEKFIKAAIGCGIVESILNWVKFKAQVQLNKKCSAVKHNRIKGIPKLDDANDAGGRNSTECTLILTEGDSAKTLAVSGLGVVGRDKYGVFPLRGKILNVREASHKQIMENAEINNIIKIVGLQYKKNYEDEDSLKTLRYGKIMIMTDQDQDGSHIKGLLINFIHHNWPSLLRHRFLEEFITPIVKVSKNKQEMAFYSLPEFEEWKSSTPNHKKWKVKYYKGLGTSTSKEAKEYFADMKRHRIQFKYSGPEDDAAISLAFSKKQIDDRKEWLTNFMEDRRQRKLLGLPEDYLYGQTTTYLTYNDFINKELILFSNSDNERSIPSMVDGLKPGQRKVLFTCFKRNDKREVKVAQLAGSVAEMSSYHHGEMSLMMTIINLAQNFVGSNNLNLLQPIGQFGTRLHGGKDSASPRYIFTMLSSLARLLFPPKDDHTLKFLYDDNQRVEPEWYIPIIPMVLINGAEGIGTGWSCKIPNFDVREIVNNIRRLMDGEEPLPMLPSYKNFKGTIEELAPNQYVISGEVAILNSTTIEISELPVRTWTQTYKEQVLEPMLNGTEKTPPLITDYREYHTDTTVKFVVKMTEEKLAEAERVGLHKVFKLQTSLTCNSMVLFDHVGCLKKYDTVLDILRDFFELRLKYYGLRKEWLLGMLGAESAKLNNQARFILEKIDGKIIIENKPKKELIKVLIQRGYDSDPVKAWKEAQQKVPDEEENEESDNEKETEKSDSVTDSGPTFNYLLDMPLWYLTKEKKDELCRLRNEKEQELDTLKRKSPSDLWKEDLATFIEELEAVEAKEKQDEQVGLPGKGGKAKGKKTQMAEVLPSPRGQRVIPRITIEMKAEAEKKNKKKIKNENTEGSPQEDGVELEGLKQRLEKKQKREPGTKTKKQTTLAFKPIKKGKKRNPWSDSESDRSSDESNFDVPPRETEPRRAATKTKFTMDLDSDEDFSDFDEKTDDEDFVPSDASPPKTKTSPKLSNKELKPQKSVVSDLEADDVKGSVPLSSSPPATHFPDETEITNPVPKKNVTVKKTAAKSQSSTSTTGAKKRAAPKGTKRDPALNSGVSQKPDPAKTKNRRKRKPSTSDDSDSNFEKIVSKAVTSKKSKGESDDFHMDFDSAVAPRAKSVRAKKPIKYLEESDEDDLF

SMILES	melting point	IC50 [1]	anti-proliferative activity category [2]	IC50 [3]	IC50 [4]	further results
Cn1c(N)c(NC2=CC(=O)CC(C)(C)C2)c(=O)[nH]c1=S [Compound 3c, 6-Amino-5-((5,5-dimethyl-3-oxocyclohex-1-en-1-yl)amino)-1-methyl-2-thioxo-2,3-dihydropyrimidin-4(1H)-one]	> 300 °C	> 100 µM	low	> 100 µM	> 100 µM	
CCn1c(N)c(NC2=CC(=O)CC(C)(C)C2)c(=O)[nH]c1=O [Compound 3d, 6-Amino-5-((5,5-dimethyl-3-oxocyclohex-1-en-1-yl)amino)-1-ethylpyrimidine-2,4(1H,3H)-dione]	> 300 °C	31.4 ± 1.39 µM	moderate to high	21.6 ± 0.76 µM	33.3 ± 0.99 µM	
O=c1[nH]c(=O)n(Cc2ccccc2)c2n[se]nc12 [Compound 5d, 4-Benzyl-[1,2, 5]selenadiazolo[3,4-d]pyrimidine-5,7(4H,6H)-dione]	260 to 261 °C	29.3 ± 0.86 µM	moderate to high	17.7 ± 0.81 µM	26.8 ± 0.89 µM	IC50 (HSP90): 7.69 ± 0.46 µM; IC50 at 24 h [5]: 54.6 ± 2.05 µM; IC50 (Topoisomerase II): 8.39 ± 1.07 µM
CC1(C)CC(=O)C=C(Nc2c(N)n(Cc3ccccc3Cl)c(=O)[nH]c2=O)C1 [Compound 3b, 6-Amino-1-(2-chlorobenzyl)-5-((5,5-dimethyl-3-oxocyclohex-1-en-1-yl)amino)pyrimidine-2,4(1H,3H)-dione]	294 to 296 °C	46.1 ± 1.63 µM	low to moderate	40.4 ± 1.25 µM	36.4 ± 1.09 µM	
CN(Cc1cnc2nc(N)nc(N)c2n1)c1ccc(C(=O)N[C@@H](CCC(=O)O)C(=O)O)cc1 [Methotrexate, reference compound]		29.5 ± 2.19 µM		21.9 ± 1.08 µM	34.5 ± 2.19 µM	
Cn1c(=S)[nH]c(=O)c2n[se]nc21 [Compound 5b, 4-Methyl-5-thioxo-5,6-dihydro-[1,2,5]selenadiazolo[3,4-d]pyrimidin-7(4H)-one]	> 300 °C	98.1 ± 3.45 µM	low to moderate	57.9 ± 2.43 µM	68.7 ± 3.86 µM	
CC1(C)CC(=O)C=C(Nc2c(N)[nH]c(=O)[nH]c2=O)C1 [Compound 3a, 6-Amino-5-((5,5-dimethyl-3-oxocyclohex-1-en-1-yl)amino)pyrimidine-2,4(1H,3H)-dione]		27.1 ± 1.91 µM	moderate to high	14.3 ± 0.83 µM	30.7 ± 0.76 µM	Topoisomerase II gene expression [6]: downregulating; also recorded: downregulate; IC50 (HSP90): 1.78 ± 0.11 µM; HSP90 gene expression (gene encoding HSP90): downregulating; also recorded: downregulated; IC50 at 24 h [5]: 80.8 ± 3.04 µM; phase at which the cell cycle is halted (HepG-2 cells [7]; HepG-2): G1-S phase; %DIP G1 (cells in the G1-S phase) (HepG-2 cells [7]; HepG-2, 14.31 μM, untreated cells 43.82% (±2.61)): 51.46%; caspase-3 gene expression (caspase-3 gene): upregulating; also recorded: increased; also recorded: upregulated; IC50 (Topoisomerase II; in vitro enzyme assay, read-out: Topoisomerase II IC50 (mean ± SD)): 4.48 ± 0.65 µM; total apoptotic cells (HepG-2 cells [8]): 37.93%
O=c1[nH]cc(F)c(=O)[nH]1 [5-Fluorouracil, reference compound]		10.1 ± 0.44 µM		7.37 ± 0.29 µM	12.3 ± 0.53 µM	
Cn1c(=O)c2n[se]nc2n(C)c1=O [Compound 7, 4,6-Dimethyl-[1,2, 5]selenadiazolo[3,4-d]pyrimidine-5,7(4H,6H)-dione]	278 to 280 °C	> 100 µM	low	> 100 µM	> 100 µM	
O=c1[nH]c(=O)c2n[se]nc2[nH]1 [Compound 5a, [1,2, 5]selenadiazolo[3,4-d]pyrimidine-5,7(4H,6H)-dione]	> 300 °C	51.9 ± 1.48 µM	low to moderate	51.7 ± 2.09 µM	58 ± 2.13 µM	
COc1cccc2c1C(=O)c1c(O)c3c(c(O)c1C2=O)C[C@@](O)(C(=O)CO)C[C@@H]3O[C@H]1C[C@H](N)[C@H](O)[C@H](C)O1 [Doxorubicin, reference compound]						IC50 at 24 h [5]: 19.6 ± 0.74 µM
Nc1c(N=[Se]=O)c(=O)[nH]c(=O)n1Cc1ccccc1Cl	> 300 °C					
Cn1c(=O)[nH]c(=O)c2n[se]nc21 [Compound 5e, 4-Methyl-[1,2, 5]selenadiazolo[3,4-d]pyrimidine-5,7(4H,6H)-dione]	> 300 °C	> 100 µM	low	> 100 µM	> 100 µM	
CCn1c(=O)[nH]c(=O)c2n[se]nc21 [Compound 5c, 4-Ethyl-[1,2, 5]selenadiazolo[3,4-d]pyrimidine-5,7(4H,6H)-dione]	> 300 °C	39.7 ± 1.32 µM		33.4 ± 1.09 µM	42.5 ± 1.19 µM	
CC1(C)CC(=O)C=C(Nc2c(N)n(Cc3ccccc3)c(=O)[nH]c2=O)C1 [Compound 3e, 6-Amino-1-benzyl-5-((5,5-dimethyl-3-oxocyclohex-1-en-1-yl)amino)pyrimidine-2,4(1H,3H)-dione]	292 to 294 °C	> 100 µM	low to moderate	47.6 ± 1.39 µM	44 ± 1.28 µM	
Cn1c(N)c(NC2=CC(=O)CC(C)(C)C2)c(=O)[nH]c1=O [Compound 3f, 6-Amino-5-((5,5-dimethyl-3-oxocyclohex-1-en-1-yl)amino)-1-methylpyrimidine-2,4(1H,3H)-dione]	> 300 °C	> 100 µM	low	> 100 µM	> 100 µM	
